Laboratory results published in patent publication EP2998294A1, “Naphthyl sulfonamide phenyl derivatives as KEAP-1 modulators for the treatment of diabetes, obesity, dyslipidemia and related disorders” (SANOFI, priority 2014, dated 2016).

Biological target: T1, human Keap1 kelch domain (amino acids Ala321-Thr609) (Homo sapiens, UniProt Q14145)
T1 construct: human Keap1 kelch domain (amino acids Ala321-Thr609)
Assay: Keap1-Nrf2 peptide binding assay (fluorescence polarisation)
Conditions: binding of Keap1 kelch domain (20 nM) to fluorescently labeled Nrf2 peptide (50 nM)

T1 sequence (Q14145 321-609): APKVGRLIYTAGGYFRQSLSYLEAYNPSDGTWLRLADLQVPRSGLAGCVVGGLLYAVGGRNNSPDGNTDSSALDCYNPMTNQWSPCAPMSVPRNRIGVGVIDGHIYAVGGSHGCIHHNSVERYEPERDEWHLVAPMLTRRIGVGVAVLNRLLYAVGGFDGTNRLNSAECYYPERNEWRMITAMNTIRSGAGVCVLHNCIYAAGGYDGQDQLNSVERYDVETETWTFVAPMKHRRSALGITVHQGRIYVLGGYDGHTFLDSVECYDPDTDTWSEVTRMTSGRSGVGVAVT

| SMILES | IC50 |
| --- | --- |
| Cc1c(Cl)cc(F)cc1S(=O)(=O)Nc1ccc(-c2cccc(C(=O)O)c2)c2ccccc12 [Example 46, 3-[4-[(3-chloro-5-fluoro-2-methylphenyl)sulfonylamino]-1-naphthyl]benzoic acid] | 2100 nM |
| O=C(O)c1ccc(F)c(-c2ccc(NS(=O)(=O)c3c(Cl)cc(C(F)(F)F)cc3Cl)c3ccccc23)c1 [Example 81, 3-[4-[[2,6-dichloro-4-(trifluoromethyl)phenyl]sulfonylamino]-1-naphthyl]-4-fluoro-benzoic acid] | 700 nM |
| Cc1cc(Cl)c(C)c(S(=O)(=O)Nc2ccc(-c3cccc(C(=O)O)c3)c3ccccc23)c1Cl [Example 57, 3-[4-[(2,5-dichloro-3,6-dimethylphenyl)sulfonylamino]-1-naphthyl]benzoic acid] | 600 nM |
| N#Cc1ccc(S(=O)(=O)Nc2ccc(-c3cccc(C(=O)O)c3)c3ccccc23)c(Cl)c1 [Example 33, 3-[4-[(2-chloro-4-cyanophenyl)sulfonylamino]-1-naphthyl]benzoic acid] | 5200 nM |

Same assay, conditions: binding of Keap1 kelch domain (20 nM) to fluorescently labeled Nrf2 peptide (50 nM); read-out: IC50

| SMILES | IC50 |
| --- | --- |
| COc1ccc(S(=O)(=O)Nc2ccc(-c3cccc(C(=O)O)c3)c3ccccc23)c(OC)c1 [Example 2, 3-[4-[(2,4-dimethoxyphenyl)sulfonylamino]-1-naphthyl]benzoic acid] | 4500 nM |
| COc1ccc(F)c(S(=O)(=O)Nc2ccc(-c3cccc(C(=O)O)c3)c3ccccc23)c1 [Example 32, 3-[4-[(2-fluoro-5-methoxyphenyl)sulfonylamino]-1-naphthyl]benzoic acid] | 3300 nM |
| Cc1c(S(=O)(=O)Nc2ccc(-c3cccc(C(=O)O)c3)c3ccccc23)cnn1-c1ccccc1 [Example 23, 3-[4-[(5-methyl-1-phenyl-pyrazol-4-yl)sulfonylamino]-1-naphthyl]benzoic acid] | 4500 nM |
| CC(=O)Nc1ccc(C)c(S(=O)(=O)Nc2ccc(-c3cccc(C(=O)O)c3)c3ccccc23)c1 [Example 31, 3-[4-[(5-acetamido-2-methylphenyl)sulfonylamino]-1-naphthyl]benzoic acid] | 3200 nM |
| O=C(O)c1cccc(-c2ccc(NS(=O)(=O)c3ccc(-n4cccn4)cc3)c3ccccc23)c1 [Example 20, 3-[4-[(4-pyrazol-1-ylphenyl)sulfonylamino]-1-naphthyl]benzoic acid] | 4000 nM |
| CCCCn1cc(S(=O)(=O)Nc2ccc(-c3cccc(C(=O)O)c3)c3nc(C)ccc23)c(C)n1 [Example 71, 3-[5-[(1-butyl-3-methyl-pyrazol-4-yl)sulfonylamino]-2-methyl-8-quinolyl]benzoic acid] | 22000 nM |

Results, then the compound that gave them:

| IC50 | SMILES |
| --- | --- |
| 2500 nM | Cc1cc(NC(=O)N2CCOCC2)ccc1S(=O)(=O)Nc1ccc(-c2cccc(C(=O)O)c2)c2ccccc12 [Example 45, 3-[4-[[2-methyl-4-(morpholine-4-carbonylamino)phenyl]sulfonylamino]-1-naphthyl]benzoic acid] |
| 900 nM | O=C(O)c1ccc(F)c(-c2ccc(NS(=O)(=O)c3cc(Cl)sc3Cl)c3ccccc23)c1 [Example 85, 3-[4-[(2,5-dichloro-3-thienyl)sulfonylamino]-1-naphthyl]-4-fluoro-benzoic acid] |
| 300 nM | Cc1nn(C)c(Cl)c1S(=O)(=O)Nc1ccc(-c2cc(C(=O)O)ccc2F)c2ccccc12 [Example 56, 3-[4-[(5-chloro-1,3-dimethyl-pyrazol-4-yl)sulfonylamino]-1-naphthyl]-4-fluorobenzoic acid] |
| 1600 nM | Cc1nn(-c2ccccc2)c(C)c1S(=O)(=O)Nc1ccc(-c2cccc(C(=O)O)c2)c2ccccc12 [Example 50, 3-[4-[(3,5-dimethyl-1-phenyl-pyrazol-4-yl)sulfonylamino]-1-naphthyl]benzoic acid] |
| 200 nM | Cc1cc(C)c(C)c(S(=O)(=O)Nc2ccc(-c3cccc(C(=O)O)c3F)c3ccccc23)c1C [Example 4, 2-fluoro-3-[4-[(2,3,5,6-tetramethylphenyl)sulfonylamino]-1-naphthyl]benzoic acid] |
